{
  "source": "PubChem BioAssay AID1259409",
  "about": "(Chemical Carcinogenesis Research Information System (CCRIS), 2018)",
  "origin": "cited, not measured here",
  "tested_on": "rodent chemically induced tumor inhibition, incidence and multiplicity",
  "assay": "CCRIS tumor inhibitor studies",
  "settings": "Route [Inhibitor]: ORAL; for tumour outcome (control, treated, inhibition, significance): Promoter: NONE USED",
  "data": [
    {"smiles": "O=[Se](O)O", "values": [
      {"measurement": "tumour outcome (control, treated, inhibition, significance)", "setting": "Carcinogen: AZOXYMETHANE, 25843-45-2, Dose [Inhibitor]: 2.5 PPM IN DIET BEGINNING 1 WK POST CARCINOGEN DOSE FOR DURATION OF STUDY (STUDY DURATION: 39 WK), Species: RAT, Strain/Sex: F344/MALE, Target Tissue: Type of Lesion: DUODENUM: ADENOCARCINOMA, Dose [Carcinogen]: 15 MG/KG BW 1/WK FOR 2 WK", "result": "7/27 (26%), 8/27 (30%), -15%, not significant"},
      {"measurement": "tumour outcome (control, treated, inhibition, significance)", "setting": "Carcinogen: AZOXYMETHANE, 25843-45-2, Dose [Inhibitor]: 2.5 PPM IN DIET BEGINNING 1 WK POST CARCINOGEN DOSE FOR DURATION OF STUDY (STUDY DURATION: 39 WK), Species: RAT, Strain/Sex: F344/MALE, Target Tissue: Type of Lesion: DUODENUM: ADENOMA, Dose [Carcinogen]: 15 MG/KG BW 1/WK FOR 2 WK", "result": "3/27 (11%), 5/27 (19%), -73%, not significant"},
      {"measurement": "tumour outcome (control, treated, inhibition, significance)", "setting": "Carcinogen: AZOXYMETHANE, 25843-45-2, Dose [Inhibitor]: 2.5 PPM IN DIET BEGINNING 3 WK PRIOR TO CARCINOGEN DOSE AND CONTINUING FOR 1 WK POST CARCINOGEN DOSE (STUDY DURATION: 39, Species: RAT, Strain/Sex: F344/MALE, Target Tissue: Type of Lesion: COLON: ADENOCARCINOMA, Dose [Carcinogen]: 15 MG/KG BW 1/WK FOR 2 WK", "result": "10/27 (37%), 9/27 (33%), 11%, not significant"},
      {"measurement": "tumour outcome (control, treated, inhibition, significance)", "setting": "Carcinogen: AZOXYMETHANE, 25843-45-2, Dose [Inhibitor]: 2.5 PPM IN DIET BEGINNING 3 WK PRIOR TO CARCINOGEN DOSE AND CONTINUING FOR 1 WK POST CARCINOGEN DOSE (STUDY DURATION: 39, Species: RAT, Strain/Sex: F344/MALE, Target Tissue: Type of Lesion: COLON: ADENOMA, Dose [Carcinogen]: 15 MG/KG BW 1/WK FOR 2 WK", "result": "16/27 (59%), 13/27 (48%), 19%, not significant"},
      {"measurement": "tumour outcome (control, treated, inhibition, significance)", "setting": "Carcinogen: AZOXYMETHANE, 25843-45-2, Dose [Inhibitor]: 2.5 PPM IN DIET BEGINNING 3 WK PRIOR TO CARCINOGEN DOSE AND CONTINUING FOR 1 WK POST CARCINOGEN DOSE (STUDY DURATION: 39, Species: RAT, Strain/Sex: F344/MALE, Target Tissue: Type of Lesion: DUODENUM: ADENOCARCINOMA, Dose [Carcinogen]: 15 MG/KG BW 1/WK FOR 2 WK", "result": "7/27 (26%), 13/27 (48%), -85%, not significant"},
      {"measurement": "tumour outcome (control, treated, inhibition, significance)", "setting": "Carcinogen: AZOXYMETHANE, 25843-45-2, Dose [Inhibitor]: 2.5 PPM IN DIET BEGINNING 3 WK PRIOR TO CARCINOGEN DOSE AND CONTINUING FOR 1 WK POST CARCINOGEN DOSE (STUDY DURATION: 39, Species: RAT, Strain/Sex: F344/MALE, Target Tissue: Type of Lesion: DUODENUM: ADENOMA, Dose [Carcinogen]: 15 MG/KG BW 1/WK FOR 2 WK", "result": "3/27 (11%), 6/27 (22%), -100%, not significant"},
      {"measurement": "tumour outcome (control, treated, inhibition, significance)", "setting": "Carcinogen: AZOXYMETHANE, 25843-45-2, Dose [Inhibitor]: O.5 PPM IN DIET BEGINNING 3 WK PRIOR TO CARCINOGEN DOSE AND CONTINUING FOR 1 WK POST CARCINOGEN DOSE (STUDY DURATION: 39, Species: RAT, Strain/Sex: F344/MALE, Target Tissue: Type of Lesion: COLON: ADENOCARCINOMA, Dose [Carcinogen]: 15 MG/KG BW 1/WK FOR 2 WK", "result": "10/27 (37%), 8/27 (30%), 19%, not significant"},
      {"measurement": "tumour outcome (control, treated, inhibition, significance)", "setting": "Carcinogen: BENZO[A]PYRENE, 50-32-8, Dose [Inhibitor]: 4 PPM IN DRINKING WATER DAILY FOR 12 MO STARTING 12 MO BEFORE CARCINOGEN TREATMENT (STUDY DURATION: 67 WK), Species: MOUSE, Strain/Sex: BALB/MALE, Target Tissue: Type of Lesion: INJECTION SITE: SARCOMA, Dose [Carcinogen]: 4 UG/G BW ONCE", "result": "31/50 (62%), 14/50 (28%), 55%"},
      {"measurement": "outcome", "setting": "Carcinogen: DIETHYLNITROSAMINE [55-18-5], Dose [Inhibitor]: 5 PPM IN DRINKING WATER, 3 WK AFTER PARTIAL HEPATECTOMY TO END AT 12 MO (STUDY DURATION: 12 MO), DRINKING WATER, Species: RAT, Strain/Sex: F344, Target Tissue: Type of Lesion: LIVER: TUMOR DENSITY, Dose [Carcinogen]: 200 MG/KG BW ONCE, Promoter: 2-ACETYLAMINOFLUORENE [53-96-3]", "result": "26, 14, 46.2%, p=0.01"},
      {"measurement": "tumour outcome (control, treated, inhibition, significance)", "setting": "Carcinogen: DIETHYLNITROSAMINE, 55-18-5, Dose [Inhibitor]: 0, 1 MG/L IN DRINKING WATER FOR DURATION OF STUDY BEGINNING 7 D PRIOR TO FIRST CARCINOGEN DOSE (STUDY DURATION: 6 MO), Species: RAT, Strain/Sex: BD6/FEMALE, Target Tissue: Type of Lesion: ESOPHAGUS: TUMOR, Dose [Carcinogen]: 80 MG/KG BW 1/WK FOR 8 WK", "result": "30%, 0%, 100%, p<0.05"},
      {"measurement": "tumour outcome (control, treated, inhibition, significance)", "setting": "Carcinogen: DIETHYLNITROSAMINE, 55-18-5, Dose [Inhibitor]: 0, 5 MG/L IN DRINKING WATER FOR DURATION OF STUDY BEGINNING 7 D PRIOR TO CARCINOGEN TREATMENT (STUDY DURATION: 6 MO), Species: RAT, Strain/Sex: BD6/FEMALE, Target Tissue: Type of Lesion: ESOPHAGUS: TUMOR, Dose [Carcinogen]: 80 MG/KG BW 1/WK FOR 9 WK", "result": "50%, 51%, -2%, not significant"},
      {"measurement": "tumour outcome (control, treated, inhibition, significance)", "setting": "Carcinogen: DIETHYLNITROSAMINE, 55-18-5, Dose [Inhibitor]: 0, 5 MG/L IN DRINKING WATER FOR DURATION OF STUDY BEGINNING 7 D PRIOR TO CARCINOGEN TREATMENT (STUDY DURATION: 6 MO), Species: RAT, Strain/Sex: BD6/FEMALE, Target Tissue: Type of Lesion: LIVER: TUMOR, Dose [Carcinogen]: 80 MG/KG BW 1/WK FOR 9 WK", "result": "100%, 95%, 5%, not significant"},
      {"measurement": "tumour outcome (control, treated, inhibition, significance)", "setting": "Carcinogen: DIETHYLNITROSAMINE, 55-18-5, Dose [Inhibitor]: 0, 5 MG/L IN DRINKING WATER FOR DURATION OF STUDY BEGINNING 7 D PRIOR TO FIRST CARCINOGEN DOSE (STUDY DURATION: 6 MO), Species: RAT, Strain/Sex: BD6/FEMALE, Target Tissue: Type of Lesion: ESOPHAGUS: TUMOR, Dose [Carcinogen]: 80 MG/KG BW 1/WK FOR 8 WK", "result": "31%, 50%, -61%, not significant"},
      {"measurement": "tumour outcome (control, treated, inhibition, significance)", "setting": "Carcinogen: DIETHYLNITROSAMINE, 55-18-5, Dose [Inhibitor]: 0, 5 MG/L IN DRINKING WATER FOR DURATION OF STUDY BEGINNING 7 D PRIOR TO FIRST CARCINOGEN DOSE (STUDY DURATION: 6 MO), Species: RAT, Strain/Sex: BD6/FEMALE, Target Tissue: Type of Lesion: LIVER: TUMOR, Dose [Carcinogen]: 80 MG/KG BW 1/WK FOR 8 WK", "result": "94%, 94%, 0%, not significant"},
      {"measurement": "tumour outcome (control, treated, inhibition, significance)", "setting": "Carcinogen: DIETHYLNITROSAMINE, 55-18-5, Dose [Inhibitor]: 0, 10 MG/L IN DRINKING WATER FOR DURATION OF STUDY BEGINNING 4 D POST CARCINOGEN TREATMENT (STUDY DURATION: 6 M0), Species: RAT, Strain/Sex: BD6/FEMALE, Target Tissue: Type of Lesion: LIVER: TUMOR, Dose [Carcinogen]: 80 MG/KG BW 1/WK FOR 9 WK", "result": "100%, 96%, 4%, not significant"}
    ]}
  ]
}
